Broadly, the IC50 is the concentration at which inhibition is half-maximal.

Activity calls are given as the source filed them.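 The calls were made as follows: active = IC50 against the VIM-2 bacterial beta-lactamase enzyme at or below a set limit; inactive = IC50 above that set limit.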

The values below come from PubChem BioAssay AID1919 (The Scripps Research Institute Molecular Screening Center, 2009).

This assay concerns the target VIM-2 metallo-beta-lactamase (Pseudomonas aeruginosa) (UniProt Q932Y6). Kind of assay: concentration-dependent VIM-2 enzyme inhibition – biochemical, epi-absorbance readout, selective inhibitors, dose response (AID 1919). Conditions: purified VIM-2, nitrocefin hydrolysis, epi-absorbance fluorescence.
Turning to `CCCCn1c(-c2nn(C)cc2Cl)n[nH]c1=S`, the IC50 was 4.2 µM.

Consider `O=C(CSc1nnc(NC(=O)C2CCCCC2)s1)NCc1ccco1`, for which the IC50 is 6.64 µM.

`CC(C)(C)c1ccc(COc2ccsc2C(=O)O)cc1`: the IC50 entry was “inactive”.

For `Cc1cc(OCc2cc(C(=O)O)oc2C)c2c3c(c(=O)oc2c1)CCCC3`, the IC50 is 1.49 µM.

On to `O=Cc1c(NCc2ccc(Cl)cc2)c2ccccc2[nH]c1=O`, for which the IC50 entry was “inactive”.

On to `Fc1ccccc1-c1n[nH]c(=S)n1Cc1ccccc1`, for which the IC50 entry is “inactive”.

Turning to `CC(C)Cn1c(-c2ccco2)n[nH]c1=S`, the IC50 entry was “inactive”.

For the compound `O=C(O)C(NC(=O)c1ccccc1)=C(Cl)Cl`, the IC50 entry was “inactive”.

For `CC(C)(C)C(=O)Nc1nnc(SCC(=O)NCc2cccs2)s1`, the IC50 is 2.62 µM.

Take `COCC(C)NC(=O)c1cc2cccc([N+](=O)[O-])c2[nH]1` (configuration not stated): the IC50 entry was “inactive”.

As for `CCCCn1c(-c2ccoc2C)n[nH]c1=S`, the IC50 entry is “inactive”.

In the case of `COc1cccc(-n2c(CNC(=O)OC(C)(C)C)n[nH]c2=S)c1`, the IC50 entry is “inactive”.

For `S=c1[nH]nc(C2CC2)n1Cc1ccco1`, the IC50 was 9.32 µM.

As to `O=C(CSc1nnc(NC(=O)c2cccc(F)c2)s1)NCc1ccco1`, the IC50 was > 59.6 µM (inactive).

`O=c1[nH]c2c(s1)C(c1cccnc1)C1C3CCC(C3)C1S2` (configuration not stated): the IC50 was 0.0544 µM.

Turning to `O=C(CSc1nnc(NC(=O)c2c(F)cccc2F)s1)NCc1ccccc1`, the IC50 was 9.26 µM.

On to `CCn1c(-c2nn(-c3ccccc3)ccc2=O)n[nH]c1=S`, for which the IC50 entry was “inactive”.

For `O=C(CSc1nnc(NC(=O)c2ccccc2F)s1)NCc1ccc(F)cc1`, the IC50 entry is “inactive”.

With `C=C(c1cccc2ccccc12)P(=O)(O)O`, the IC50 is 6.81 µM.

For the compound `COc1ccc2[nH]c(C(=O)O)c(CCN3C(=O)c4ccc(C(=O)O)cc4C3=O)c2c1`, the IC50 is 1.43 µM.

`CCCc1cc(=O)oc2c3c(cc(OCC(=O)N[C@@H](C)C(=O)O)c12)OC(C)(C)CC3`: the IC50 entry is “inactive”.

Turning to `C=CCn1c(C2CC2)n[nH]c1=S`, the IC50 result was “inactive”.

Regarding `S=c1[nH]nc(C2CC2)n1Cc1ccccc1`, the IC50 was 3.35 µM.

As for `Cc1c(C)c2ccc(OCC(=O)N3CCC[C@@H]3C(=O)O)c(C)c2oc1=O`, the IC50 is 6.07 µM.

For the compound `O=C(O)Cn1cccc1C(=O)c1ccccc1`, the IC50 result is “inactive”.

Take `CC(C)(C)c1ccc(-c2n[nH]c(=S)n2CCCN2CCOCC2)cc1`: the IC50 result is “inactive”.

As to `Cc1cc(C)n(-c2nc(SCC(=O)O)c3c4c(sc3n2)COC(C)(C)C4)n1`, the IC50 entry was “inactive”.

Regarding `O=C(c1ccco1)N1N=C(c2ccc(Cl)cc2)CC1c1ccco1` (configuration not stated), the IC50 is 7.31 µM.

Regarding `O=C1Nc2cc(C(=O)NCCCN3CCOCC3)ccc2S/C1=C/c1ccccc1F`, the IC50 entry was “inactive”.

Consider `O=C(CSc1nnc(NC(=O)c2ccccc2[N+](=O)[O-])s1)NCc1ccco1`, for which the concentration for half-maximal inhibition (IC50) is 6.93 µM.

For `CSC[C@H](NC(=O)COc1cc2c(c3oc(=O)c(C)c(C)c13)CCC(C)(C)O2)C(=O)O`, the IC50 entry is “inactive”.

As to `CCc1cc(=O)oc2c(C)c(OCC(=O)N3CCC[C@@H]3C(=O)O)ccc12`, the IC50 result was “inactive”.

Consider `Cc1cc(=O)oc2c3c(cc(OCC(=O)N4CCC[C@H]4C(=O)O)c12)OC(C)(C)CC3`, for which the IC50 result was “inactive”.

`O=C(O)c1[nH]c2ccc(Cl)cc2c1CCN1C(=O)c2ccccc2C1=O`: the IC50 was 1.29 µM.

As for `Cn1c(-c2sccc2OCc2ccccc2)n[nH]c1=S`, the IC50 is 5.45 µM.

In the case of `O=C(O)c1ccccc1Sc1ncnc2sc3c(c12)CCC3`, the IC50 entry was “inactive”.

As for `Cc1ccc(S(=O)(=O)n2[nH]c(=O)cc2NC(=O)c2cccs2)cc1`, the IC50 is 0.453 µM.

For `Cc1nn(CCc2n[nH]c(=S)n2-c2cccc(Cl)c2)c(C)c1[N+](=O)[O-]`, the IC50 entry was “inactive”.

`Cc1cc(OCC(=O)N2CCC[C@@H]2C(=O)O)c2c(C)c(C)c(=O)oc2c1`: the IC50 result is “inactive”.

With `COc1ccc(-c2cc(C(F)(F)F)nc(N3CCN(C)CC3)n2)cc1`, the IC50 is > 59.6 µM (inactive).

Take `CC(C)(C)CC(=O)Nc1nnc(SCC(=O)NCc2cccs2)s1`: the IC50 entry was “inactive”.

In the case of `COc1ccc(-c2n[nH]c(=S)n2-c2ccc3c(c2)OCCO3)cc1OC`, the IC50 result was “inactive”.

As for `Cc1cc(C(=O)OCC(=O)NC(=O)c2cccn2C)c2ccccc2n1`, the IC50 is > 59.6 µM (inactive).

For the compound `COc1ccccc1-c1n[nH]c(=S)n1Cc1ccco1`, the IC50 entry was “inactive”.

On to `Cc1n[nH]c(C)c1CCCCOc1ccc([N+](=O)[O-])cc1`, for which the IC50 result is “inactive”.

Consider `CSc1nc(SCC(=O)O)c2c3c(sc2n1)COC(C)(C)C3`, for which the IC50 entry was “inactive”.

Turning to `CCCCn1c(-c2sccc2C)n[nH]c1=S`, the IC50 was 4.73 µM.

Take `Cc1cc(=O)oc2c3c(cc(OCC(=O)N[C@@H](Cc4ccccc4)C(=O)O)c12)OC(C)(C)CC3`: the IC50 entry was “inactive”.

As for `O=C(O)c1[nH]c2ccc(Br)cc2c1CCN1C(=O)c2cccc([N+](=O)[O-])c2C1=O`, the IC50 is 1.98 µM.

Take `Cc1ccccc1C(=O)Nc1nnc(SCC(=O)NCc2ccco2)s1`: the IC50 is 3.01 µM.

Turning to `Cc1cccc(C(=O)Nc2nnc(SCC(=O)NCc3ccco3)s2)c1`, the IC50 is > 59.6 µM (inactive).

As for `S=c1[nH]nc(-c2cccs2)n1C1CCCCC1`, the IC50 is 6.69 µM.

For the compound `O=C(CSc1nnc(NC(=O)c2cc(Br)ccc2Cl)s1)NCC1CCCO1` (configuration not stated), the IC50 result was “inactive”.

As to `O=C(O)c1c(C(=O)O)c(-c2ccc(Br)cc2)n2c1CSC2`, the IC50 was 4.78 µM.

On to `Cn1ccnc1SCC(=O)Nc1ccc2nc(SCC(=O)NC3CC3)sc2c1`, for which the IC50 entry was “inactive”.

With `CCCc1cc(=O)oc2c3c(cc(OCC(=O)N4CCC[C@H]4C(=O)O)c12)OC(C)(C)CC3`, the IC50 is 6.62 µM.

Turning to `S=c1[nH]nc(Cn2c(-c3ccccn3)nc3ccccc32)n1-c1ccc2c(c1)OCCO2`, the IC50 result is “inactive”.

Consider `O=[N+]([O-])c1ccc(-c2ccccc2)c([As](=O)(O)O)c1`, for which the IC50 is 0.748 µM.

As for `O=C1Nc2cc(C(=O)N3CCC(N4CCCCC4)CC3)ccc2S/C1=C\c1ccccc1`, the IC50 result is “inactive”.

As to `S=c1[nH]nc(-c2ccccc2)n1C1C=CCCC1` (configuration not stated), the IC50 result was “inactive”.

In the case of `Cc1ccc(-n2c(-c3nn(C)c(C)c3Cl)n[nH]c2=S)cc1`, the IC50 result is “inactive”.

`CC(C)(C)C(=O)Nc1nnc(CSCc2ccccc2F)s1`: the IC50 is 4.99 µM.

Turning to `COc1cc2c(cc1OC)C(C)N(C(=O)c1nccnc1C(=O)O)CC2` (configuration not stated), the IC50 entry was “inactive”.

For `C=C(C)Cn1c(-c2cccs2)n[nH]c1=S`, the IC50 was 5.07 µM.

In the case of `O=P(O)(O)c1ccccc1OCc1ccccc1`, the IC50 is 2.44 µM.

On to `Cc1c(C)c2c(OCC(=O)N[C@@H](C)C(=O)O)cc3c(c2oc1=O)CCC(C)(C)O3`, for which the IC50 was 4.44 µM.

Take `S=c1[nH]nc(-c2ccc3ccccc3n2)n1-c1ccc2c(c1)OCCO2`: the IC50 entry is “inactive”.

Consider `Cc1c(C)c2c(OCC(=O)N3CCC[C@H]3C(=O)O)cc3c(c2oc1=O)CCC(C)(C)O3`, for which the IC50 was 1.73 µM.

As for `Cc1c(Cl)c(-c2n[nH]c(=S)n2-c2ccc(F)cc2)nn1C`, the IC50 entry is “inactive”.

`CC(=O)c1ccc(-c2ccc(Cn3c(C)nc4cc(N)c(C)nc43)cc2)cc1`: the IC50 is > 59.6 µM (inactive).

As to `O=C(O)C1Sc2[nH]c(=O)sc2C2c3cc(Cl)ccc3OC(=O)C12` (configuration not stated), the IC50 was > 59.6 µM (inactive).

`CCOC(=O)c1[nH]c(C(=O)O)c(CCC(=O)OC)c1C`: the IC50 entry is “inactive”.

Regarding `CCN(CC)C(=O)CSc1nc2ccc(NC(=O)CSc3nccn3C)cc2s1`, the IC50 entry is “inactive”.

For `O=c1[nH]c(SCc2n[nH]c(=S)n2-c2ccccc2)nc2sc3c(c12)CCC3`, the IC50 is > 59.6 µM (inactive).

In the case of `S=c1[nH]nc(-c2ccco2)n1-c1cccc2ccccc12`, the IC50 result is “inactive”.

In the case of `Cc1cccc(C2c3[nH]c4ccccc4c3CCN2C(=O)c2cc(CC(C)C)[nH]c(=O)n2)n1` (configuration not stated), the IC50 is 7.93 µM.

`Cc1c(OCC(=O)N2CCC[C@@H]2C(=O)O)ccc2c3c(c(=O)oc12)CCC3`: the IC50 entry was “inactive”.

Regarding `CC1CCCCC1n1c(-c2cccnc2)n[nH]c1=S` (configuration not stated), the IC50 entry was “inactive”.

With `O=C(CSc1nnc(NC(=O)c2ccccc2)s1)NCc1ccco1`, the IC50 is > 59.6 µM (inactive).

In the case of `S=c1[nH]nc(-c2cccs2)n1Cc1ccccc1`, the IC50 is 4.09 µM.

As to `CCCC(=O)Nc1nnc(SCC(=O)NCc2cccs2)s1`, the IC50 result was “inactive”.

As for `O=C(CCN1C(=O)/C(=C/c2ccccc2F)SC1=S)NCCCn1ccnc1`, the IC50 was 6.45 µM.

For `O=P(O)(O)c1ccccc1OCCCCCOc1ccccc1P(=O)(O)O`, the IC50 was 2.4 µM.

In the case of `CCCn1c(C(C)C)n[nH]c1=S`, the IC50 entry was “inactive”.

`S=c1[nH]nc(-c2ccccc2)n1Cc1ccccc1`: the IC50 entry is “inactive”.

On to `CCCCc1cc(=O)oc2c3c(cc(OCC(=O)N4CCC[C@H]4C(=O)O)c12)OC(C)(C)CC3`, for which the IC50 entry is “inactive”.

Turning to `CC1CCCC(C)N1C(=O)CSc1nnc(NC(=O)c2cccs2)s1` (configuration not stated), the IC50 entry is “inactive”.

As to `S=c1[nH]nc(-c2ccco2)n1Cc1ccccc1`, the IC50 is 6.48 µM.

Regarding `COc1ccccc1-n1c(-c2ccco2)n[nH]c1=S`, the IC50 entry was “inactive”.

For `COc1ccccc1C(=O)Nc1nnc(SCC(=O)NCc2ccco2)s1`, the IC50 was 6.48 µM.

With `COCC(=O)Nc1nnc(SCC(=O)NCc2cccs2)s1`, the IC50 was 9.67 µM.

`Cc1cccc(-n2c(C)n[nH]c2=S)c1C`: the IC50 was > 59.6 µM (inactive).

On to `O=c1c2ccccc2cnn1Cc1n[nH]c(=S)n1C1CC2CCC1C2` (configuration not stated), for which the IC50 entry is “inactive”.

Take `CC1=C(C(=O)O)N2C(=O)C(NC(=O)c3nn(C)cc3[N+](=O)[O-])C2SC1` (configuration not stated): the IC50 entry is “inactive”.

Turning to `CCCCn1c(-c2nn(C)c(C)c2Cl)n[nH]c1=S`, the half-maximal inhibitory concentration (IC50) was 5.37 µM.

Regarding `O=C(O)CC/C(=C\c1cc([N+](=O)[O-])ccc1Cl)c1nc2ccccc2s1`, the IC50 entry is “inactive”.

For `S=c1[nH]nc(-c2ccccc2)n1CC1CCCO1` (configuration not stated), the IC50 result is “inactive”.
